Consider 8 compounds from US8952024B2, “Herbicidal pyrimidone derivatives” (E I du Pont de Nemours and Company, priority 2009, dated 2015).

Common to all, as to format: in vivo
The subject of experiment [1] is Russian thistle (Salsola kali). In words: Test B pre-/postemergence plant response. The settings on record: Preemergence; for Russian Thistle plant response rating: 250 g ai/ha, 0 to 100 scale. In outline: (§1)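 Each species received compound formulated in non-phytotoxic solvent with surfactant, either at planting into a loam and sand blend or as a foliar spray once plants reached 2 to 18 cm in peat-based medium. Plants stayed in the greenhouse 13 to 15 days before visual evaluation against controls, scored 0 (no effect) to 100 (complete control).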

Experiment [2] relates to nightshade (eastern black nightshade, Solanum ptycanthum). The experiment can be described thus: Test B pre-/postemergence plant response. The following applies: Preemergence; for Nightshade plant response rating: 250 g ai/ha, 0 to 100 scale. The gist of the method:
as §1

Experiment [3] relates to sunflower (common oilseed sunflower, Helianthus annuus). The experiment can be described thus: Test B pre-/postemergence plant response. The following applies: Preemergence; for Sunflower plant response rating: 250 g ai/ha, 0 to 100 scale. In outline:
as §1

For experiment [4], the system named is galium (catchweed bedstraw, Galium aparine). In words: Test B pre-/postemergence plant response. In outline:
as §1

In experiment [5] the test system is winter barley (Hordeum vulgare). The experiment can be described thus: Test B postemergence plant response. The settings on record: for Barley plant response rating (0 to 100 scale): 0 is no effect. In outline: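 Plants grown in peat/vermiculite medium were sprayed postemergence at 2–18 cm height (1- to 4-leaf stage). After 13–15 days in the greenhouse, response was rated visually against untreated controls on a 0–100 scale (0 no effect, 100 complete control).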

Experiment [6] concerns deadnettle (henbit deadnettle, Lamium amplexicaule). The experiment can be described thus: Test B pre-/postemergence plant response. The following applies: Postemergence. In outline: as §1
[7] abbreviates: 62 g ai/ha, scale 0 to 100 (0 no effect, 100 complete control).
The mark [8] stands for this setting: 31 g ai/ha, scale 0 to 100 (0 no effect, 100 complete control).
[9] abbreviates: 125 g ai/ha, scale 0 to 100, 0 no effect, 100 complete control.
The mark [10] stands for this setting: 250 g ai/ha, Preemergence, 0 to 100 scale.
Setting [11] is: Preemergence, 31 g ai/ha, scale 0 to 100 (0 no effect, 100 complete control).
Setting [12] is: Preemergence, 62 g ai/ha, scale 0 to 100 (0 no effect, 100 complete control).
Where [13] appears, read: Preemergence, 125 g ai/ha, scale 0 to 100, 0 no effect, 100 complete control.
Setting [14] is: 31 g ai/ha, postemergence, scale 0 to 100, 0 is no effect, 100 is complete control.
Setting [15] is: Postemergence, 250 g ai/ha, scale 0 to 100 (0 no effect, 100 complete control).
Setting [16] is: 62 g ai/ha, postemergence, 100 is complete control, 13 to 15 days.
[17] abbreviates: Postemergence, 125 g ai/ha, visual rating after 13 to 15 days, scale 0 (no effect) to 100 (complete control).
[18] abbreviates: Preemergence, 250 g ai/ha, 0 to 100 scale.
Where [19] appears, read: Postemergence, 125 g ai/ha, scale 0 to 100 (0 no effect, 100 complete control).
The mark [20] stands for this setting: 31 g ai/ha, 0 to 100 scale (0 no effect, 100 complete control).
[21] abbreviates: 125 g ai/ha, scale 0 to 100 (0 no effect, 100 complete control).
[22] abbreviates: 250 g ai/ha, scale 0 to 100 (0 no effect, 100 complete control), 13 to 15 days.
Where [23] appears, read: Postemergence, 31 g ai/ha, 0 to 100 scale (0 no effect, 100 complete control).
Setting [24] is: Postemergence, 250 g ai/ha, scale 0 to 100 (0 no effect, 100 complete control), 13 to 15 days.
[25] abbreviates: Postemergence, 62 g ai/ha, scale 0 to 100 (0 no effect, 100 complete control).

In the case of `O=C1CCCC(O)=C1C(=O)c1cnc(-c2cccc(Cl)c2)n(-c2ccc(Cl)cc2)c1=O` [Compound 64], the “Plant response rating, Russian Thistle” value in experiment [1] (setting [7]) is reported as 0. The “Plant response rating, Nightshade” value in experiment [2] (setting [8]) is 55; in experiment [2] (setting [7]), 85; in experiment [2] (setting [9]) it was 95. In addition, the “Plant response rating, Sunflower” value in experiment [3] (setting [8]), in experiment [3] (setting [7]) and in experiment [3] (setting [9]) was 0 throughout. For the same compound, the “Plant response rating, Galium” value is given as 70 in experiment [4] (setting [10]), 0 in experiment [4] (setting [11]), 0 in experiment [4] (setting [12]) and 30 in experiment [4] (setting [13]). In addition, the “Plant response rating, Barley” value came to 15 in experiment [5] (setting [14]) and 35 in experiment [5] (setting [15]).

As for `CCCCc1ncc(C(=O)C2=C(O)CCCC2=O)c(=O)n1-c1ccc(C)cc1` [Compound 67], the “Plant response rating, Russian Thistle” value in experiment [1] (setting [8]) is 85. Besides, the entries for the “Plant response rating, Nightshade” value in experiment [2] (setting [8]), in experiment [2] (setting [7]) and in experiment [2] (setting [9]) were 70, 95 and 95, respectively. Also, the “Plant response rating, Sunflower” value in experiment [3] (setting [8]) was found to be 0; in experiment [3] (setting [7]), 20; in experiment [3] (setting [9]) it was 35. In addition, the “Plant response rating, Galium” value in experiment [4] (setting [10]) came to 90; in experiment [4] (setting [11]), 0; in experiment [4] (setting [12]) it was 35; in experiment [4] (setting [13]) it was 85. Further, the “Plant response rating, Barley” value in experiment [5] (setting [14]) amounted to 0; in experiment [5] (setting [17]), 20; in experiment [5] (setting [15]), 30. In addition, the “Barley plant response rating (0 to 100 scale)” value (“Barley plant response rating” for short) in experiment [5] (setting [16]) was determined as 5.

On to `COCCCn1c(-c2cc(F)cc(F)c2)ncc(C(=O)C2=C(O)CCCC2=O)c1=O` [Compound 120], for which the “Plant response rating, Russian Thistle” value in experiment [1] (setting [7]) and in experiment [1] (setting [9]) was 80 each time. Further, the entries for the “Plant response rating, Nightshade” value in experiment [2] (setting [8]), in experiment [2] (setting [7]) and in experiment [2] (setting [9]) were 90, 95 and 95, respectively. Moreover, the “Nightshade plant response rating” value in experiment [2] is recorded as 98. Also, the “Plant response rating, Sunflower” value in experiment [3] (setting [8]) is 45; in experiment [3] (setting [9]), 85. For the same compound, the “Sunflower plant response rating” value in experiment [3] is listed as 95. Also, the “Plant response rating, Galium” value is given as 80 in experiment [4] (setting [11]), 90 in experiment [4] (setting [12]) and 95 in experiment [4] (setting [13]). For the same compound, the “Galium plant response rating” value in experiment [4] (setting [18]) is on record as 98. In addition, the “Barley plant response rating” value in experiment [5] (setting [16]) is given as 5. The “Plant response rating, Barley” value in experiment [5] (setting [19]) and in experiment [5] (setting [15]) was 5 in each case.

With `CCCc1ncc(C(=O)C2=C(O)CCCC2=O)c(=O)n1CC1CCCO1` (centres unmarked) [Compound 74], the results for the “Plant response rating, Russian Thistle” value in experiment [1] (setting [8]), in experiment [1] (setting [7]) and in experiment [1] (setting [9]) were 0, 80 and 90, respectively. Also, in experiment [1], the “Russian Thistle plant response rating” value was 98. Besides, the “Plant response rating, Nightshade” value in experiment [2] (setting [8]) is recorded as 85; in experiment [2] (setting [7]), 98; in experiment [2] (setting [9]) it was 98. In addition, the “Nightshade plant response rating” value in experiment [2] turned out to be 100. The “Plant response rating, Sunflower” value in experiment [3] (setting [8]) is recorded as 0; in experiment [3] (setting [7]) it was 55; in experiment [3] (setting [9]), 70. Moreover, the “Sunflower plant response rating” value in experiment [3] is reported as 85. Moreover, the “Plant response rating, Galium” value was 20 in experiment [4] (setting [11]), 30 in experiment [4] (setting [12]) and 40 in experiment [4] (setting [13]). The “Galium plant response rating” value in experiment [4] (setting [18]) came to 98. In addition, the “Plant response rating, Barley” value in experiment [5] (setting [14]), in experiment [5] (setting [17]) and in experiment [5] (setting [15]) was 0 throughout. Moreover, the “Barley plant response rating” value in experiment [5] (setting [16]) was 0.

Take `COCCn1c(-c2cc(F)cc(F)c2)ncc(C(=O)C2=C(O)CCCC2=O)c1=O` [Compound 119]: the “Plant response rating, Russian Thistle” value in experiment [1] (setting [8]), in experiment [1] (setting [7]) and in experiment [1] (setting [9]) was 100 throughout. Further, the “Russian Thistle plant response rating” value in experiment [1] is reported as 100. In addition, the entries for the “Plant response rating, Nightshade” value in experiment [2] (setting [8]), in experiment [2] (setting [7]) and in experiment [2] (setting [9]) were 90, 98 and 98, respectively. Also, the “Nightshade plant response rating” value in experiment [2] is listed as 100. Further, the “Plant response rating, Sunflower” value was determined as 40 in experiment [3] (setting [8]), 60 in experiment [3] (setting [7]) and 70 in experiment [3] (setting [9]). Besides, in experiment [3], the “Sunflower plant response rating” value was determined as 85. For the same compound, the results for the “Plant response rating, Galium” value in experiment [4] (setting [11]), in experiment [4] (setting [12]) and in experiment [4] (setting [13]) were 65, 85 and 90, respectively. The “Galium plant response rating” value in experiment [4] (setting [18]) came to 100. In addition, the “Plant response rating, Barley” value in experiment [5] (setting [14]) turned out to be 0; in experiment [5] (setting [19]), 5; in experiment [5] (setting [15]), 5. Also, in experiment [5] (setting [16]), the “Barley plant response rating” value is reported as 0.

In the case of `Cc1ccc(Cl)cc1-n1c(-c2cccc(F)c2)ncc(C(=O)C2=C(O)CCCC2=O)c1=O` [Compound 184], the “Plant response rating, Deadnettle” value in experiment [6] (setting [20]), in experiment [6] (setting [21]) and in experiment [6] (setting [22]) was 100 throughout. Also, the “Plant response rating, Galium” value in experiment [4] (setting [23]) is listed as 50; in experiment [4] (setting [19]), 60; in experiment [4] (setting [24]) it was 60. For the same compound, the “Barley plant response rating” value in experiment [5] (setting [16]) is 40. Also, the “Plant response rating, Barley” value in experiment [5] (setting [23]) stood at 5; in experiment [5] (setting [19]), 60; in experiment [5] (setting [24]), 60.

In the case of `O=C1CCCC(O)=C1C(=O)c1cnc(-c2ccc(F)cc2)n(C2CCCCC2)c1=O` [Compound 197], the “Plant response rating, Deadnettle” value in experiment [6] (setting [20]), in experiment [6] (setting [7]), in experiment [6] (setting [21]) and in experiment [6] (setting [22]) was 100 each time. Further, the “Plant response rating, Galium” value in experiment [4] (setting [23]) is given as 75; in experiment [4] (setting [25]) it was 75; in experiment [4] (setting [24]), 80. The “Plant response rating, Barley” value in experiment [5] (setting [23]) came to 0; in experiment [5] (setting [25]) it was 5; in experiment [5] (setting [19]) it was 10; in experiment [5] (setting [24]) it was 40.

In the case of `CCCc1ncc(C(=O)C2=C(O)CCCC2=O)c(=O)n1-c1ccccc1C` [Compound 73], the “Plant response rating, Russian Thistle” value in experiment [1] (setting [8]) was 0. The “Plant response rating, Nightshade” value in experiment [2] (setting [8]) was found to be 75; in experiment [2] (setting [7]) it was 95; in experiment [2] (setting [9]), 98. Further, the “Plant response rating, Sunflower” value in experiment [3] (setting [8]) is 0; in experiment [3] (setting [7]) it was 20; in experiment [3] (setting [9]) it was 70. Besides, the “Plant response rating, Galium” value came out at 85 in experiment [4] (setting [10]), 30 in experiment [4] (setting [12]) and 80 in experiment [4] (setting [13]). The “Plant response rating, Barley” value in experiment [5] (setting [14]) was found to be 0; in experiment [5] (setting [17]), 0; in experiment [5] (setting [15]), 10. Moreover, in experiment [5] (setting [16]), the “Barley plant response rating” value was 0.
